Patent US20060263895A1, “Method for monitoring the stereoselectivity and relative rate of organic chemical reactions” (priority 2005, published 2006)

What was measured:
[1] = Double cuvette-ISES (in situ enzymatic screening) of Co(III)-salen mediated HKR of (±)-propylene oxide; details: for % ee of the 1,2-propanediol product, as predicted by double-cuvette ISES (upper number): bilayer of pH 8.6 buffer over 7.2 M epoxide in CHCl3, 0.25 mol % catalyst, 15-35 min, + = (S), − = (R)
Protocol: Aqueous reporting layers. containing TBADH/NADP+ (cuvette 1) and HLADH/NAD+ (cuvette 2), respectively, are then added. The increase in absorbance at 340 nm can be followed for several such sets in parallel by UV-vis spectrophotometry. The kinetic data are then used to make the double-cuvette ISES predictions.
A general procedure for double cuvette-ISES to estimate both enantioselectivities and relative rates for an array of catalysts being screened in parallel is presented below. The hydrolytic kinetic resolution (HKR) of (±) propylene oxide was chosen as model reaction.
Typically, quartz cuvettes with one cm light paths and with nominal one mL volumes were used. For each catalyst, a two cuvette screen was performed, with cuvette A containing HLADH, as (S)-propanediol-selective reporting enzyme, and cuvette B containing TBADH, as a (R)-propanediol-selective reporting enzyme. For each cuvette, the final volume was 800 μL (300 μL of organic layer; 500 μL of aqueous layer).
Both cuvettes A and B had the following composition: 150 μL (2.15 mmol) of (±)-propylene oxide (7.2 M in organic layer), 150 μL of CHCl3 and 0.25 mol % Co(III)-salen catalyst. The total organic layer volume was maintained as 300 μL in all catalyst screens.
(i) Cuvette A: 0.35 U HLADH (17.6 μL from a stock solution (0.02U/μL)), 7.2 mM β-NAD+(16.5 μL from a 220 mM stock) and 465.8 μL of 50 mM sodium pyrophosphate buffer, pH 8.8. The final pH was 8.6.
(ii) Cuvette B: 0.35 U TBADH (15.8 μL from a stock solution (0.022U/μL)) of, 2.2 mM β-NADP+ (5 μL from a 220 mM stock) and 479.5 μL of 50 mM sodium pyrophosphate buffer, pH 8.8. The final pH was 8.6. The total volume of the aqueous layer was maintained as 500 μL in both cuvettes in all ISES experiments.
C. Step by Step Protocol: A catalyst stock solution (22 μmol of catalyst in 620 μL CHCl3) was made up in a 1.5 ml microcentrifuge tube, and stored on ice, along with a stock of (±)-propylene oxide, in a separate tube. The organic layers were prepared by briefly vortexing 150 μL (5.4 μmol, 0.25 mol %) of the catalyst stock in CHCl3 with 150 μL (2.15 mmol) of (±)-propylene oxide in iced microcentrifuge tubes. These were loaded into 1 mL quartz cuvettes using precooled (refrigerator), disposable 1 mL syringes. The aqueous layers were then layered on top of the organic layers, by syringe, down the walls of the cuvette.

[2] = HKR of (±)-propylene oxide under standard neat 'Jacobsen conditions' (NMR conversion, chiral HPLC ee); details: for NMR conv. (time) / % ee (HPLC): loading 0.25 mol %; for % ee (HPLC): reaction stopped at the time given (mostly 3 h); for % ee (HPLC) / % ee of the 1,2-propanediol product, as observed by chiral HPLC (lower number): + = (S), − = (R); for % ee of the 1,2-propanediol product, as observed by chiral HPLC (lower number): neat propylene oxide, 0.55 equiv. H2O, 0.25 mol % catalyst, 3 h reaction time
Protocol: Salens in the fully synthetic, 42 member focused library that led to catalysts with appreciable activity, as indicated by double cuvette-ISES, were also evaluated ‘outside of the cuvette,’ under conditions more typically employed in HKR reactions. Specifically, these Co(III)-salen catalysts were evaluated in the HKR of (±)-propylene oxide, under neat conditions, similar to those described by Jacobsen and coworkers. Reactions were arbitrarily stopped after 3 hours, to obtain the enantiopurity of the 1,2-propanediol product at relatively early reaction times, for comparison with ISES predictions.
A typical procedure follows: To the Co(III)-salen catalyst derived from 7e (5.4 mg, 5.4 μmol, 0.25 mol %) and (±)-propylene oxide (125 mg, 2.15 mmol) at 0° C., was added water (21 μL, 1.18 mmol, 0.55 equiv.). The reaction mixture was securely capped, and allowed to warm to room temperature and stirred, most commonly for a total of 3 hours. Percent conversion at 3 hours was evaluated by 1H NMR of an aliquot (cooled to 0° C. for the transfer), in CDCl3. In most of these cases, the conversion was low enough after 3 hours, that the unreacted epoxide (bp 32° C.) was of relatively low ee, and was therefore removed by evaporation under aspirator vacuum. When the conversion was less than 5% by NMR after 3 hours, reactions were continued for longer times.
Upon termination of the reaction, the diol product was isolated by Kugelrohr distillation (˜120° C.-oven temp; 0.1 torr). To determine ee, the isolated diol was derivatized using p-bromobenzoyl imidazole (2.2 equiv.) in THF in the presence of NaH (4 equiv.) at room temperature for 5 min. The bis(p-bromobenzoate) esters obtained following sequential washes with 1 N HCl and saturated sodium bicarbonate, were of sufficient purity to be used directly for chiral HPLC analysis (Chiralcel OD, 99% […]). [drawing 23] [drawing 24] [drawing 25] [drawing 26] [drawing 27]

Row | Compound | ISES signal ([1]; over 35 min) | other results
1 | N,N′-Bis(2′-hydroxy-1′-naphthylidene)-[1R-(1α,2α,5α)]-2-amino-7,7-dimethyl-2-bicyclo[3.3.1]heptane-ethanamine [Salen 1c] | § (These catalysts gave ISES signals <20 mAbs min−1 over 35 min.) | 
2 | Oc1c(C=NC[C@@H](N=Cc2ccc3ccccc3c2O)c2ccccc2)ccc2ccccc12 [Salen 2d, N,N′-Bis(1′-hydroxy-2′-naphthylidene)-(1S)-phenyl-1,2-ethylenediamine] |  | % ee of the 1,2-propanediol product, as predicted by double-cuvette ISES (upper number) [1]: −15 % ee; NMR conv. (time) ([2]; 22 h): 19 (22 h) %; % ee (HPLC) [2]: −54 (R) % ee; % ee of the 1,2-propanediol product, as observed by chiral HPLC (lower number) [2]: −54 % ee
3 | Oc1ccc2ccccc2c1C=NC[C@@H](N=Cc1c(O)ccc2ccccc12)c1ccccc1 [Salen 2c, N,N′-Bis(2′-hydroxy-1′-naphthylidene)-(1S)-phenyl-1,2-ethylenediamine] | § (These catalysts gave ISES signals <20 mAbs min−1 over 35 min.) | 
4 | CO[C@H]1[C@@H]2OC(C)(C)O[C@@H]2COC1(CN=Cc1c(O)ccc2ccccc12)N=Cc1c(O)ccc2ccccc12 (some centres unmarked) [Salen 7c, N,N′-Bis(2′-hydroxy-1′-naphthylidene)-3-O-methyl-4,5-O-isopropylidene-1,2-dideoxy-Dfructopyranosyl-1,2-diamine] | § (These catalysts gave ISES signals <20 mAbs min−1 over 35 min.) | NMR conv. (time) ([2]; time not given): none obs
5 | CO[C@H]1[C@@H]2OC(C)(C)O[C@@H]2COC1(CN=Cc1c(O)ccc2ccccc12)N=Cc1c(O)ccc2ccccc12 (some centres unmarked) [Salen 6c, N,N′-Bis(2′-hydroxy-1′-naphthylidene)-3-O-methyl-4,5-O-isopropylidene-1,2-dideoxy-Dfructopyranosyl-1,2-diamine] | § (These catalysts gave ISES signals <20 mAbs min−1 over 35 min.) | 
6 | Oc1c(I)cc(I)cc1C=NC[C@H](Cc1cccc2ccccc12)N=Cc1cc(I)cc(I)c1O [Salen 4e, N,N′-Bis(3′,5′-diiodosalicylidene)-(1S)-(α-naphthylmethyl)-1,2-ethylenediamine] |  | % ee of the 1,2-propanediol product, as predicted by double-cuvette ISES (upper number) [1]: +43 % ee; ISES rate in the HLADH cuvette ([1]; over 35 min): 18.1 mAbs min−1; NMR conv. (time) ([2]; 24 h): 6 (24 h) %; % ee (HPLC) [2]: +14 (S) % ee; % ee of the 1,2-propanediol product, as observed by chiral HPLC (lower number) [2]: +14 % ee
7 | N,N′-Bis(8′-hydroxy-1′,1′,7′,7′-tetramethyljulolidine-9′-methylidene)-[1R-(1α,2α,5α)]-2-amino-7,7-dimethyl-2-bicyclo[3.3.1]heptane-ethanamine [Salen 1g] | § (These catalysts gave ISES signals <20 mAbs min−1 over 35 min.) | 
8 | Oc1ccc2ccccc2c1C=NC[C@H](Cc1ccccc1)N=Cc1c(O)ccc2ccccc12 [Salen 3c, N,N′-Bis(2′-hydroxy-1′-naphthylidene)-(1S)-benzyl-1,2-ethylenediamine] | § (These catalysts gave ISES signals <20 mAbs min−1 over 35 min.) | NMR conv. (time) ([2]; time not given): none obs
9 | Oc1cc(OCc2ccccc2)ccc1C=NC[C@H](Cc1cccc2ccccc12)N=Cc1ccc(OCc2ccccc2)cc1O [Salen 4f, N,N′-Bis(4′-benzyloxysalicylidene)-(1S)-(α-naphthylmethyl)-1,2-ethylenediamine] |  | % ee of the 1,2-propanediol product, as predicted by double-cuvette ISES (upper number) [1]: +57 % ee; NMR conv. (time) ([2]; 21 h): 24 (21 h) %; % ee (HPLC) [2]: +51 (S) % ee; % ee of the 1,2-propanediol product, as observed by chiral HPLC (lower number) [2]: +51 % ee
10 | Oc1c(I)cc(I)cc1C=NC[C@H](Cc1ccccc1)N=Cc1cc(I)cc(I)c1O [Salen 3e, N,N′-Bis(3′,5′-diiodosalicylidene)-(1S)-benzyl-1,2-ethylenediamine] | § (These catalysts gave ISES signals <20 mAbs min−1 over 35 min.) | 
11 | CC1(C)CCN2CCC(C)(C)c3c(O)c(C=NC[C@H](Cc4cccc5ccccc45)N=Cc4cc5c6c(c4O)C(C)(C)CCN6CCC5(C)C)cc1c32 [Salen 4g, N,N′-Bis(8′-hydroxy-1′,1′,7′,7′-tetramethyljulolidinyl-9′-methylidene)-(1S)-α-naphthylmethyl-1,2-ethylenediamine] | § (These catalysts gave ISES signals <20 mAbs min−1 over 35 min.) | 
12 | Oc1ccc2ccccc2c1C=NC[C@H](Cc1ccc2ccccc2c1)N=Cc1c(O)ccc2ccccc12 [Salen 5c] | § (These catalysts gave ISES signals <20 mAbs min−1 over 35 min.) | 
13 | N,N′-Bis(4′-benzyloxysalicylidene)-[1R-(1α,2α,5α)]-2-amino-7,7-dimethyl-2-bicyclo[3.3.1]heptane-ethanamine [Salen 1f] | § (These catalysts gave ISES signals <20 mAbs min−1 over 35 min.) | 
14 | Oc1cc(OCc2ccccc2)ccc1C=NC[C@@H](N=Cc1ccc(OCc2ccccc2)cc1O)c1ccccc1 [Salen 2f, N,N′-Bis(4′-benzyloxysalicylidene)-(1S)-phenyl-1,2-ethylenediamine] | § (These catalysts gave ISES signals <20 mAbs min−1 over 35 min.) | 
15 | Oc1ccc2ccccc2c1C=NC[C@H](Cc1cccc2ccccc12)N=Cc1c(O)ccc2ccccc12 [Salen 4c, N,N′-Bis(2′-hydroxy-1′-naphthylidene)-(1S)-(α-naphthylmethyl)-1,2-ethylenediamine] | § (These catalysts gave ISES signals <20 mAbs min−1 over 35 min.) | 
16 | COC1C2OC(C)(C)OC2COC1(CN=Cc1ccc(OCc2ccccc2)cc1O)N=Cc1ccc(OCc2ccccc2)cc1O (stereo not drawn) [Salen 7f, N,N′-Bis(4′-benzyloxysalicylidene)-3-O-methyl-4,5-O-isopropylidene-1,2-dideoxy-β-Dfructopyranosyl-1,2-diamine] | § (These catalysts gave ISES signals <20 mAbs min−1 over 35 min.) | 
17 | COC1C2OC(C)(C)OC2COC1(CN=Cc1ccc2ccccc2c1O)N=Cc1ccc2ccccc2c1O (stereo not drawn) [Salen 7d, N,N′-Bis(1′-hydroxy-2′-naphthylidene)-3-O-methyl-4,5-O-isopropylidene-1,2-dideoxy-β-Dfructopyranosyl-1,2-diamine] | § (These catalysts gave ISES signals <20 mAbs min−1 over 35 min.) | 
18 | Oc1cc(OCc2ccccc2)ccc1C=NC[C@H](Cc1ccccc1)N=Cc1ccc(OCc2ccccc2)cc1O [Salen 3f, N,N′-Bis(4′-benzyloxysalicylidene)-(1S)-benzyl-1,2-ethylenediamine] | § (These catalysts gave ISES signals <20 mAbs min−1 over 35 min.) | 
19 | CC1(C)CCN2CCC(C)(C)c3c(O)c(C=NC[C@H](Cc4ccc5ccccc5c4)N=Cc4cc5c6c(c4O)C(C)(C)CCN6CCC5(C)C)cc1c32 [Salen 5g, N,N′-Bis(8′-hydroxy-1′,1′,7′,7′-tetramethyljulolidinyl-9′-methylidene)-(1S)-(β-naphthylmethyl)-1,2-ethylenediamine] | § (These catalysts gave ISES signals <20 mAbs min−1 over 35 min.) | 
20 | Oc1cc(OCc2ccccc2)ccc1C=NC[C@H](Cc1ccc2ccccc2c1)N=Cc1ccc(OCc2ccccc2)cc1O [Salen 5f, N,N′-Bis(4′-benzyloxysalicylidene)-(1S)-(β-naphthylmethyl)-1,2-ethylenediamine] | § (These catalysts gave ISES signals <20 mAbs min−1 over 35 min.) | 
